How the values were obtained:
Format in all cases: in vivo
[1] = tested on: crabgrass, large (Digitaria sanguinalis); assay: Test A postemergence
How it was run: (§1)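 Visual injury scores from 0, no effect, to 100, complete control, were assigned versus untreated controls roughly 10 d after treatment in the greenhouse. Test chemicals, formulated with surfactant in a non-phytotoxic solvent, were applied to planted seeds as a preemergence soil spray or postemergence to one- to two-leaf plants 2 to 10 cm tall, in loam–sand soil.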

corn (Zea mays) [2] = assay: Test A postemergence
How it was run: as §1

[3] = tested on: pigweed (Amaranthus retroflexus); assay: Test A postemergence
How it was run: as §1

[4] = tested on: wheat (Triticum aestivum); assay: Test A postemergence
How it was run: as §1

[5] = tested on: velvetleaf (Abutilon theophrasti); assay: Test A postemergence
How it was run: as §1

[6] = tested on: barnyardgrass (Echinochloa crus-galli); assay: Test A postemergence
How it was run: as §1

[7] = tested on: giant foxtail (Setaria faberii); assay: Test A postemergence
How it was run: as §1

[8] = tested on: morningglory (Ipomoea spp.); assay: Test A postemergence
How it was run: as §1

rice (Oryra sativa) = assay: Test B flooded paddy test; conditions: Flood, 0 to 100 scale where 0 is no effect and 100 is complete control, 13 to 15 d
How it was run: (§2)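 Percent control, visually estimated after 13–15 d in the greenhouse on a 0–100 basis, compares treated pots with untreated ones; compound was put into paddy water 3 cm above the soil when plants had two leaves.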

[9] = tested on: sedge, umbrella (small-flower umbrella sedge, Cyperus difformis); assay: Test B flooded paddy test; conditions: Flood
How it was run: as §2

[10] = tested on: barnyardgrass (Echinochloa crus-galli); assay: Test B flooded paddy test; conditions: Flood, 0 to 100 scale where 0 is no effect and 100 is complete control, 13 to 15 d
How it was run: as §2

[11] = tested on: ducksalad (Heteranthera limosa); assay: Test B flooded paddy test; conditions: Flood, 0 to 100 scale where 0 is no effect and 100 is complete control, 13 to 15 d
How it was run: as §2

[12] = tested on: crabgrass, large (Digitaria sanguinalis); assay: Test A preemergence; conditions: for Plant response rating, Crabgrass, Large: preemergence
How it was run: as §1

corn (Zea mays) [13] = assay: Test A preemergence; conditions: for Plant response rating, Corn: preemergence
How it was run: as §1

[14] = tested on: pigweed (Amaranthus retroflexus); assay: Test A preemergence; conditions: for Plant response rating, Pigweed: preemergence
[15] = tested on: wheat (Triticum aestivum); assay: Test A preemergence; conditions: for Plant response rating, Wheat: preemergence
How it was run: as §1

[16] = tested on: velvetleaf (Abutilon theophrasti); assay: Test A preemergence; conditions: for Plant response rating, Velvetleaf: preemergence
How it was run: as §1

[17] = tested on: barnyardgrass (Echinochloa crus-galli); assay: Test A preemergence; conditions: for Plant response rating, Barnyardgrass: preemergence
How it was run: as §1

[18] = tested on: giant foxtail (Setaria faberii); assay: Test A preemergence; conditions: for Plant response rating, Foxtail, Giant: preemergence
How it was run: as §1

[19] = tested on: morningglory (Ipomoea spp.); assay: Test A preemergence; conditions: for Plant response rating, Morningglory: preemergence
How it was run: as §1

[20] = 500 g ai/ha, postemergence, 0 to 100 scale, 0 no effect, 100 complete control
[21] = Postemergence, 125 g ai/ha, visual injury, 0 to 100 scale (0 no effect, 100 complete control), approx. 10 d
[22] = 125 g ai/ha, 0 to 100 scale (0 no effect, 100 complete control)
[23] = Preemergence, 500 g ai/ha, 0 is no effect, 100 is complete control
[24] = 125 g ai/ha, postemergence, visual injury after approximately 10 d, 0 to 100 scale (0 no effect, 100 complete control)
[25] = 500 g ai/ha, postemergence, visual injury, 0 to 100 scale (0 no effect, 100 complete control), approx. 10 d
[26] = 125 g ai/ha, visual rating after approx. 10 d, 0 to 100 scale where 0 is no effect and 100 is complete control
[27] = 500 g ai/ha, 0 to 100 scale, 0 = no effect, 100 = complete control

O=C1NCC(c2ccc(-c3ccccc3)cc2)C1C(=O)Nc1ccccc1C(F)(F)F (racemic) [Compound 367]
0: Plant response rating, Crabgrass, Large [1, 20] | Plant response rating, Crabgrass, Large [1, 21] | Plant response rating, Corn (corn (Zea mays) [2]; [20]) | Plant response rating, Corn (corn (Zea mays) [2]; [21]) | Plant response rating, Pigweed [3, 20] | Plant response rating, Pigweed [3, 21] | Plant response rating, Wheat [4, 20] | Plant response rating, Wheat [4, 21] | Plant response rating, Velvetleaf [5, 20] | Plant response rating, Velvetleaf [5, 21] | Plant response rating, Barnyardgrass [6, 20] | Plant response rating, Barnyardgrass [6, 21] | Plant response rating, Foxtail, Giant [7, 20] | Plant response rating, Foxtail, Giant [7, 21] | Plant response rating, Morningglory [8, 20] | Plant response rating, Morningglory [8, 21] | Plant response rating, Rice (rice (Oryra sativa); 1000 g ai/ha) | Plant response rating, Sedge, Umbrella ([9]; 1000 g ai/ha, 0 to 100 scale where 0 is no effect and 100 is complete control, 13 to 15 d) | Plant response rating, Barnyardgrass ([10]; 1000 g ai/ha) | Plant response rating, Ducksalad ([11]; 1000 g ai/ha) | Plant response rating, Crabgrass, Large [12, 22] | Crabgrass, Large plant response rating (0 to 100 scale) [12, 23] | Plant response rating, Corn (corn (Zea mays) [13]; [22]) | Corn plant response rating (0 to 100 scale) (corn (Zea mays) [13]; [23]) | Plant response rating, Pigweed [14, 22] | Pigweed plant response rating (0 to 100 scale) [14, 23] | Plant response rating, Wheat [15, 22] | Wheat plant response rating (0 to 100 scale) [15, 23] | Plant response rating, Velvetleaf [16, 22] | Velvetleaf plant response rating (0 to 100 scale) [16, 23] | Plant response rating, Barnyardgrass [17, 22] | Barnyardgrass plant response rating (0 to 100 scale) [17, 23] | Plant response rating, Foxtail, Giant [18, 22] | Foxtail, Giant plant response rating (0 to 100 scale) [18, 23] | Plant response rating, Morningglory [19, 22] | Morningglory plant response rating (0 to 100 scale) [19, 23]

O=C1NCC(c2cccc(O)c2)C1C(=O)Nc1ccccc1C(F)(F)F (racemic) [Compound 716]
0: Plant response rating, Crabgrass, Large [1, 24] | Plant response rating, Crabgrass, Large [1, 25] | Plant response rating, Corn (corn (Zea mays) [2]; [24]) | Plant response rating, Corn (corn (Zea mays) [2]; [25]) | Plant response rating, Pigweed [3, 24] | Plant response rating, Pigweed [3, 25] | Plant response rating, Wheat [4, 24] | Plant response rating, Wheat [4, 25] | Plant response rating, Velvetleaf [5, 24] | Plant response rating, Velvetleaf [5, 25] | Plant response rating, Barnyardgrass [6, 24] | Plant response rating, Barnyardgrass [6, 25] | Plant response rating, Foxtail, Giant [7, 24] | Plant response rating, Foxtail, Giant [7, 25] | Plant response rating, Morningglory [8, 24] | Plant response rating, Morningglory [8, 25] | Plant response rating, Rice (rice (Oryra sativa); 250 g ai/ha) | Sedge, Umbrella plant response rating ([9]; 250 g ai/ha, scale of 0 to 100 where 0 is no effect and 100 is complete control) | Plant response rating, Barnyardgrass ([10]; 250 g ai/ha) | Plant response rating, Ducksalad ([11]; 250 g ai/ha) | Plant response rating, Crabgrass, Large [12, 26] | Plant response rating, Crabgrass, Large [12, 27] | Plant response rating, Corn (corn (Zea mays) [13]; [26]) | Plant response rating, Corn (corn (Zea mays) [13]; [27]) | Plant response rating, Pigweed [14, 26] | Plant response rating, Pigweed [14, 27] | Plant response rating, Wheat [15, 26] | Plant response rating, Wheat [15, 27] | Plant response rating, Velvetleaf [16, 26] | Plant response rating, Velvetleaf [16, 27] | Plant response rating, Barnyardgrass [17, 26] | Plant response rating, Barnyardgrass [17, 27] | Plant response rating, Foxtail, Giant [18, 26] | Plant response rating, Foxtail, Giant [18, 27] | Plant response rating, Morningglory [19, 26] | Plant response rating, Morningglory [19, 27]

From patent US12077503B2, “Substituted cyclic amides and their use as herbicides” (FMC CORPORATION, priority 2015, dated 2024)
